Measured values as given in patent US9745279B2, “Sirtuin activator” (TOKIWA PHYTOCHEMICAL CO., LTD., priority 2011, dated 2017).

Legend:
[1] = target: T1, SIRT1 enzyme (Homo sapiens, UniProt Q96EB6); assay: SIRT1 Activity Assay/Drug Discovery kit, Fluorescent: sirtuin activity acceleration by black ginger extracts and fractions (Example 3); type: biochemical; details: subject sample solution 500 μg/mL, 10 μL/well; FIGS. 1 and 2
T1 construct: purchased BIOMOL International (via COSMO BIO CO., LTD.) AK-555 (kit); SE-239 (enzyme)
T1 sequence (Q96EB6 1-747): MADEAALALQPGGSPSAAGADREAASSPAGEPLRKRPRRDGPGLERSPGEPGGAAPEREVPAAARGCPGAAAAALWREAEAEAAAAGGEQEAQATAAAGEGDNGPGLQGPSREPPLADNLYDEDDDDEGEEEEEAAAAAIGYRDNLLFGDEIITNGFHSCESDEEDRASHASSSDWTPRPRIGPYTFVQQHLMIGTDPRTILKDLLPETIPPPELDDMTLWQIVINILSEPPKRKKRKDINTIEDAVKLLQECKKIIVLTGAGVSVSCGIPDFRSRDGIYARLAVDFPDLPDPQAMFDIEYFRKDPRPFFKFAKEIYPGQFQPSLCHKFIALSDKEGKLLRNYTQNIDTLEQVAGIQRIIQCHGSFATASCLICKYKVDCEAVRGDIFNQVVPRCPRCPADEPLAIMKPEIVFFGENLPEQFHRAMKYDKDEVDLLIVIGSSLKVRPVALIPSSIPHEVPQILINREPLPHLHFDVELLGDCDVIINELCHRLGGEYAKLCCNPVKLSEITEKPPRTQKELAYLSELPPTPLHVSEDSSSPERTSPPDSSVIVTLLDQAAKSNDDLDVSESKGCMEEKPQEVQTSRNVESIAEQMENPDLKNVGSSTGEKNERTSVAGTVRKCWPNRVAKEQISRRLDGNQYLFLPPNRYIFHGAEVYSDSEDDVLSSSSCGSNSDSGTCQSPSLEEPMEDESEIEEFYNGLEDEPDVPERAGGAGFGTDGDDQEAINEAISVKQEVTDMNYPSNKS
Method: The sirtuin activity was measured according to the attached protocol using SIRT1 Activity Assay/Drug Discovery kit, Fluorescent (AK-555, BIOMOL International, Plymouth Meeting, Pa., USA [COSMO BIO CO., LTD., Tokyo]).
All measurement reagents (preserved at −80° C.) were stationed on ice until use to melt the SIRT1 enzyme (SE-239) and 5× Developer II (KI-176) moderately. SIRT1 enzyme was diluted to 0.2 U/μL with an assay buffer (KI-286). Resveratrol and extracts and fragments of the black ginger obtained above were used as subject samples. Solutions of 500 μg/mL were prepared using purified water for hot water extracts and the water phase fraction, and using DMSO for other samples. A solution of 10 μL/well was used for each obtained subject sample. To the control was added either DMSO or purified water instead of a subject sample. The substrate Fluor de Lys-SIRT1 (KI-177; 5 mM) plus a coenzyme NAD^+ (KI-282; 50 mM) were diluted with an assay buffer (KI-286) to obtain a concentration that is 3.33 folds that of the final usage concentration, and used in an amount of 15 μL/well. […] Then, a reaction stop solution Developer II/2 mM nicotinamide was added at 50 μL/well, and the fluorescent probe generated from Developer II was measured (excited wave length 380 nm, fluorescent wave length 460 nm) by a fluorescent plate reader (Tecan Co., Infinite 200) within 60 minutes after the reaction stopped.

[2] = target: T1, SIRT1 enzyme; assay: SIRT1 fluorescent activity assay: sirtuin activity acceleration by polyalkoxyflavonoid compounds (Example 6); type: biochemical; details: FIG. 8
Method: The sirtuin activity was measured according to a protocol similar to that of Example 3.
All measurement reagents (preserved at −80° C.) were stationed on ice until use to melt the SIRT1 enzyme (SE-239) and 5× Developer II (KI-176) moderately. SIRT1 enzyme was diluted to 0.2 U/μL with an assay buffer (KI-286). Resveratrol, Compounds 1 to 5 and nobiletin (Funakoshi Co.) were used as subject samples. […] To the control was added DMSO instead of a subject sample. The substrate Fluor de Lys-SIRT1 (KI-177; 5 mM) plus a coenzyme NAD^+ (KI-282; 50 mM) was diluted with an assay buffer (KI-286) to obtain a concentration that is 3.33 folds that of the final use concentration, and used in an amount of 15 μL/well. A subject sample solution (10 μL/well), SIRT1 enzyme solution (0.2 U/μL, 5 μL/well) and an assay buffer (10 μL/well) were added to the measurement microplate and pre-incubated at 37° C. for 5 minutes. The substrate solution that was heated preliminary at 37° C. was added at 25 μL/well, then, further incubated at 37° C. for 10 minutes. Then, a reaction stop solution Developer II/2 mM nicotinamide was added at 50 μL/well, and the fluorescent probe generated from Developer II was measured (excited wave length 360 nm, fluorescent wave length 460 nm) by a fluorescent plate reader (Tecan Co., Infinite 200) within 60 minutes after the reaction stopped.

[3] = system: sirtuin; details: reported in Non-Patent Documents 4 and 5; cited from earlier work

sirtuin activity by comparison with the control value [1] | SIRT1 activity ([2]; concentrations of 100 μg/mL and 20 μg/mL) | SIRT1 activity ([2]; low concentrations of 10 μg/mL and 2 μg/mL) | Structure (SMILES) | sirtuin activation activity [3]
enhanced | accelerated | almost no activity was observed | Oc1ccc(C=Cc2cc(O)cc(O)c2)cc1 [resveratrol] | effective in activating sirtuin
 |  |  | O=C(/C=C/c1ccc(O)c(O)c1)c1ccc(O)cc1O [butein, 3,4,2′,4′-tetrahydroxychalcone] | weaker than resveratrol
 |  |  | O=c1c(O)c(-c2ccc(O)c(O)c2)oc2cc(O)cc(O)c12 [quercetin, 3,5,7,3′,4′-pentahydroxyflavone] | weaker than resveratrol
 |  |  | O=c1c(O)c(-c2ccc(O)c(O)c2)oc2cc(O)ccc12 [fisetin, 3,7,3′,4′-tetrahydroxyflavone] | weaker than resveratrol
 |  |  | O=C(/C=C/c1ccc(O)cc1)c1ccc(O)cc1O [isoliquiritigenin, 4,2′,4′-trihydroxychalcone] | weaker than resveratrol
